Here are results for 17 molecules from patent US20220411750A1, “CELL STRUCTURE, PRODUCTION METHOD THEREOF, AND METHOD FOR EVALUATING HEPATOTOXICITY OF SUBSTANCE TO BE TESTED” (TOPPAN INC., priority 2019, published 2022).

As a reminder, the Cmax is the peak of the concentration-time curve. For orientation: IC50 means the concentration that inhibits the measured activity by half.

The conditions of data set [1]: cited from earlier work; for Toxicity: Yes/No, Yes for No. 1-14, No for No. 15-18.
For data set [2] the following is noted: maximum drug concentration used for MOS value; cited from earlier work.
The test system of data set [3] is cell structure having a liver sinusoidal network produced using CMF (Example A). The data set is described as follows: Toxicity evaluation by ATP assay, cell structure of Example A (produced using CMF). The note with it: for IC50: Homo sapiens, read-out: IC50 Example A; for IC50 Example A: ATP assay, drug medium from day 7, replaced day 10, assay after 14 days; for IC50 Example A / MOS value [IC50/Cmax] Example A: cell structure produced using CMF, "Outside" = Outside measurement range; for MOS value [IC50/Cmax] Example A: ATP assay IC50 divided by Cmax.
Experimental: (§1) 100 mg of a type I collagen sponge fragment derived from pig skin (commercially available from NH Foods Ltd.) was heated at 200° C. for 24 hours, and thus a collagen component of which at least a part was cross-linked (cross-linked collagen component) was obtained. […] 50 mg of the cross-linked collagen component was put into a 15 mL tube, 5 mL of ultrapure water was added thereto, and the mixture was homogenized using a homogenizer (VH-10 commercially available from As One Corporation) for 6 minutes.
(§2) An aqueous solution containing the homogenized cross-linked collagen component was centrifuged at 10,000 rpm for 10 minutes under conditions of 21° C. The supernatant was suctioned, and collagen pellets were mixed with 5 mL of fresh ultrapure water to prepare a collagen solution. While the tube containing the collagen solution was kept on ice, an ultrasonic treatment was performed using a sonicator (VC50 commercially available from Sonics and Materials) at 100 V for 20 seconds, the sonicator was removed, and the tube containing the collagen solution was then cooled on ice for 10 seconds, which was repeated 100 times. After the ultrasonic treatment was performed 100 times, the collagen solution was filtered with a filter having a pore size of 40 μm to obtain a dispersion solution containing a defibrated collagen component (sCMF). The dispersion solution was freeze-dried by a conventional method to obtain a defibrated collagen component (sCMF) as a dried product.
(§3) A dispersion solution A in which the defibrated collagen component was dispersed in a medium (DMEM) containing serum in which 10 mg/mL of fibrinogen (commercially available from Sigma) was dissolved so that the concentration was 30 mg/mL was obtained. In addition, a dispersion solution B in which cells were dispersed in a medium (DMEM) containing serum in which 10 U/mL of thrombin (commercially available from Sigma) was dissolved so that the total number of cells per well was 30,000 cells. 10 μL of a suspension in which the obtained dispersion solution A (defibrated collagen component) and dispersion solution B were mixed at 1:1 was added to each well of a 48-well plate.
(§4) Regarding the medium, a mixed medium (mass ratio: 1:1) containing a medium for vascular endothelia 1 (ECM) and a medium for mesenchymal stem cell proliferation (MSCGM2), a medium for vascular endothelia 1 (ECM), or a medium for vascular endothelia 1 (ECM) and a medium for hepatocytes (d-HCGM) were used.
(§5) 10 days after the start of the culture, again, the medium was replaced with a medium in which the drug was dissolved, and after 14 days, the cell activity was quantified by ATP assay.
(§6) The toxicity was evaluated with IC50 and MOS value. The MOS value is an index used for toxicity evaluation as a value considering the maximum drug concentration (Cmax).

Data set [4] has as its system cell structure having a liver sinusoidal network produced using heparin and a collagen solution (Example B). Description: Toxicity evaluation by ATP assay, cell structure of Example B (produced using heparin and a collagen solution). The note with it: for IC50: Homo sapiens, read-out: IC50 Example B; for IC50 Example B: ATP assay, cell structure produced using heparin and collagen solution.
Experimental: as §5
(§7) PXB cells, SEC and LX2 were mixed so that the following proportions and cell amount were obtained, and thereby a cell mixture was obtained. • Total amount of cells per well: 30,000 cells • Cell proportions in tissue:
(§8) The same amounts of 1.0 mg/mL heparin solution (buffer: 100 mM Tris-HCL) and 0.3 mg/mL collagen solution (buffer: 5 mM acetate) were mixed to obtain a heparin/collagen solution.
(§9) 100 μL of the heparin/collagen solution was added to the cell mixture and suspended until the cells were visible, and then centrifuged (400 g×2 min), and a viscous component was formed in the solution.
(§10) After the supernatant was removed from the solution containing the viscous component, a 20 U/mL thrombin solution (solvent: HCM (culture medium for hepatocytes)) was added so that the final volume of the solution was “the number of wells to be seeded”×2 μL volume of the solution, and thereby a cell suspension was obtained.
(§11) 10 mg/mL of a fibrinogen solution was put into a 48 plate, and droplets were formed. The cell suspension was added into the droplets, and then left in the incubator for 40 minutes, and a fibrin gel was formed.
(§12) 0.5 mL of HCM (containing endothelial cell growth supplement) was added to each well in which the fibrin gel was formed, and a liver model was obtained as a cell structure.
as §6

Data set [5] concerns cell structure having a liver sinusoidal network produced using CMF (Example A). Conditions: human.
Experimental: as §1, §2, §3, §4, §5, §6
Data set [6] has as its system cell structure having a liver sinusoidal network produced using heparin and a collagen solution (Example B). Conditions: human.
Experimental: as §5, §7, §8, §9, §10, §11, §12, §6
Data set [7] has as its system two-dimensional primary human hepatocytes (2D PHH). Conditions: literature data, "Outside" = Outside measurement range; cited from earlier work.
Data set [8] has as its system 3D human liver microtissues (3D hLiMT). The note with it: literature data, "Outside" = Outside measurement range; cited from earlier work.
In data set [9] the test system is liver sinusoidal network of liver model (PXB cells, SEC, LX2). The data set is described as follows: Monocrotaline administration experiment, CD31 immunostaining of liver model. Format: cell-based, human. The note with it: monocrotaline 2,000, 666, 222 or 74 μM on Day 1 and Day 4; observed Day 7; 1% DMSO. As to the method: 1 day (Day 1) and 4 days (Day 4) after the start of the culture of the liver model, administration was performed on the liver model by replacing the medium with a medium containing monocrotaline at a concentration of 2,000 μM, 666 μM, 222 μM, or 74 μM. Here, the compound used was dissolved in advance in DMSO at a high concentration and stored, and during administration, DMSO was contained at a concentration of 1% in the medium. Since 1% DMSO was contained in each administration condition, replacement of the medium with a medium containing only 1% DMSO was performed at the same time, and the result was used as a negative control.
For the samples on which administration was performed, a fixing treatment, a permeation treatment, blocking, a primary antibody treatment, a secondary antibody treatment, imaging and area calculation and evaluation were performed in that order. Hereinafter, the procedure from the fixing treatment to evaluation will be described. […]
The intensities of the images captured by the above method were added up to obtain a fluorescence observation image of each liver model.

Setting [10] is: "Outside" = Outside measurement range.

Where two headings read alike, the source gives them in different places.

As for `Cc1ccc(C(=O)c2cc(O)c(O)c([N+](=O)[O-])c2)cc1` [Tolcapone], the Toxicity entry in [1] is given as “Yes”. In addition, in data set [2], the Cmax was 47.6 µM. Further, the IC50 was found to be 32.4 µM in data set [3] and 88.7 µM in [4].
For the molecule `Nc1cc(N2CCCCC2)nc(N)[n+]1[O-]` [Minoxidil0], in [2], the peak concentration (Cmax) is 1.19 µM. Moreover, in [3], the “IC50 Example A” value is “Outside”. Moreover, in data set [4] (setting [10]), the “IC50 Example B” value was “Outside”.
`O=C(O)Cc1ccccc1Nc1c(Cl)cccc1Cl` [Diclofenac]: the Cmax in [2] is 10.1 µM. For the same molecule, the results for the half-maximal inhibitory concentration (IC50) in data set [3] and in data set [4] were 64.1 µM and 232 µM, respectively.
Turning to `CN(C)C(=O)Oc1ccc[n+](C)c1` [Pyridostigmine], the Toxicity entry in data set [1] is listed as “No”. The maximum concentration (Cmax) in data set [2] is 1.1 µM. Moreover, the “IC50 Example A” value in data set [3] is reported as “Outside”. Also, the “IC50 Example B” value in data set [4] (setting [10]) is “Outside”.
With `C1CCC(C(CC2CCCCN2)C2CCCCC2)CC1` (stereo not drawn) [Perhexiline], the “MOS value [IC50/Cmax] Example A” value in [5] is listed as 2.5. Besides, the “MOS value [IC50/Cmax] Example B” value in [6] worked out at 1.5. The Toxicity entry in [1] is reported as “Yes”. Moreover, the figures for the IC50 in [3] and in data set [4] were 5.4 µM and 3.2 µM, respectively.
For `COc1ccccc1Oc1c(NS(=O)(=O)c2ccc(C(C)(C)C)cc2)nc(-c2ncccn2)nc1OCCO` [Bosentan], the “MOS value [IC50/Cmax] Reference Example A” value in data set [7] is “Outside”. Also, the Toxicity result in [1] was “Yes”. Besides, the highest concentration (Cmax) in data set [2] was 7.43 µM. For the same molecule, the IC50 in data set [3] amounted to 67.1 µM; in [4] it was 209 µM.
In the case of `CN(CCOc1ccc(CC2SC(=O)NC2=O)cc1)c1ccccn1` (stereo not drawn) [Rosiglitazone], the “MOS value [IC50/Cmax] Reference Example A” value in data set [7] was “Outside”. Moreover, in data set [1], the Toxicity result is reported as “Yes”. For the same molecule, the peak concentration (Cmax) in [2] was 1.04 µM. Besides, the results for the IC50 in data set [3] and in data set [4] were 46.5 µM and 79.1 µM, respectively.
Take `CC(=O)Nc1ccc(O)cc1` [Acetaminophen]: the Toxicity entry in [1] is on record as “Yes”. Further, the Cmax in [2] is 165 µM. Besides, the IC50 was 761 µM in [3] and 868 µM in data set [4].
With `C[C@H]1COc2c(N3CCN(C)CC3)c(F)cc3c(=O)c(C(=O)O)cn1c23` [Levofloxacin], the “MOS value [IC50/Cmax] Reference Example A” value in data set [7] is “Outside”. The “MOS value [IC50/Cmax] Reference Example B” value in data set [8] was “Outside”. In data set [1], the Toxicity result is on record as “Yes”. The peak concentration (Cmax) in [2] is 15.8 µM. Besides, the “MOS value [IC50/Cmax] Example A” value in data set [3] is “Outside”. Also, the IC50 in [4] was determined as 960 µM.
Turning to `C[C@H]1C(=O)O[C@@H]2CCN3CC=C(COC(=O)[C@](C)(O)[C@]1(C)O)[C@H]23` [monocrotaline], the “Fragmentation of liver sinusoidal network (CD31 immunostaining)” value in data set [9] is recorded as “liver sinusoidal network became fragmented as the monocrotaline concentration increased”.
As to `O=P1(N(CCCl)CCCl)NCCCO1` (stereo not drawn) [Cyclophosphamide], the “MOS value [IC50/Cmax] Reference Example A” value in data set [7] was “Outside”. In data set [8], the “MOS value [IC50/Cmax] Reference Example B” value is on record as “Outside”. Also, the Toxicity entry in data set [1] is listed as “Yes”. Moreover, in [2], the maximum concentration (Cmax) is 143 µM. Moreover, the figures for the IC50 in data set [3] and in data set [4] were 1670 µM and 1360 µM, respectively.
`CCOC(=O)c1ncn2c1CN(C)C(=O)c1cc(F)ccc1-2` [Flumazenil]: the “MOS value [IC50/Cmax] Reference Example A” value in data set [7] was “Outside”. Besides, the “MOS value [IC50/Cmax] Reference Example B” value in [8] is given as “Outside”. Further, the Toxicity entry in data set [1] is recorded as “No”. For the same molecule, in data set [1] (drug-induced liver injury severity category), the “DILI severity category (LKBT)” value is “I”. Moreover, in data set [2], the Cmax was 1.12 µM. In data set [3], the “MOS value [IC50/Cmax] Example A” value is “Outside” and the “IC50 Example A” value is “Outside”. Further, the “MOS value [IC50/Cmax] Example B” value in data set [4] (ATP assay IC50 divided by Cmax, cell structure produced using heparin and collagen, "Outside" = Outside measurement range) is recorded as “Outside”. The “IC50 Example B” value in data set [4] (setting [10]) is “Outside”.
`CCc1nn(CCCN2CCN(c3cccc(Cl)c3)CC2)c(=O)n1CCOc1ccccc1` [Nefazodone]: the Toxicity result in [1] is on record as “Yes”. Further, in data set [2], the Cmax is 4.26 µM. The IC50 turned out to be 22.1 µM in data set [3] and 32.4 µM in data set [4].
In the case of `CCOC(=O)CN[C@@H](C(=O)N1CC[C@H]1C(=O)NCc1ccc(/C(N)=N\O)cc1)C1CCCCC1` [Ximelagatran], the Toxicity entry in [1] is recorded as “Yes”. The Cmax in data set [2] is 0.45 µM.
For the molecule `Cc1onc(-c2c(F)cccc2Cl)c1C(=O)N[C@@H]1C(=O)N2[C@@H]1SC(C)(C)[C@@H]2C(=O)O` [Flucloxacillin], in [1], the Toxicity result is recorded as “Yes”. In addition, the highest concentration (Cmax) in data set [2] is 66.1 µM. For the same molecule, the IC50 in data set [3] turned out to be 1390 µM; in [4], 5800 µM.
As for `Cc1c(C)c2c(c(C)c1O)CCC(C)(COc1ccc(CC3SC(=O)NC3=O)cc1)O2` (stereo not drawn) [Troglitazone], the Toxicity result in [1] is recorded as “Yes”. Besides, the IC50 in data set [3] came to 17.1 µM; in [4] it was 50.2 µM.
As for `Cc1ccc(N(CC2=NCCN2)c2cccc(O)c2)cc1` [Phentolamine], in data set [1], the Toxicity entry is recorded as “No”. Also, the Cmax in [2] is 0.09 µM. The IC50 in data set [3] is 180 µM; in data set [4] it was 66 µM.
